Reference: patent publication US8420675B2, “Aminotetrahydroindazoloacetic acids” (Hoffmann-La Roche Inc., priority 2008, dated 2013)

target: T1, human CRTH2 (Homo sapiens, UniProt Q9Y5Y4); test: Human CRTH2 Receptor Binding Assay (whole cell, [3H]ramatroban competition); conditions: CHO-K1 cells expressing human CRTH2 and G-alpha16; 20 nM [3H]ramatroban; 1 hour, room temperature
T1 construct: expressed in transfected cells
T1 sequence (Q9Y5Y4 1-395): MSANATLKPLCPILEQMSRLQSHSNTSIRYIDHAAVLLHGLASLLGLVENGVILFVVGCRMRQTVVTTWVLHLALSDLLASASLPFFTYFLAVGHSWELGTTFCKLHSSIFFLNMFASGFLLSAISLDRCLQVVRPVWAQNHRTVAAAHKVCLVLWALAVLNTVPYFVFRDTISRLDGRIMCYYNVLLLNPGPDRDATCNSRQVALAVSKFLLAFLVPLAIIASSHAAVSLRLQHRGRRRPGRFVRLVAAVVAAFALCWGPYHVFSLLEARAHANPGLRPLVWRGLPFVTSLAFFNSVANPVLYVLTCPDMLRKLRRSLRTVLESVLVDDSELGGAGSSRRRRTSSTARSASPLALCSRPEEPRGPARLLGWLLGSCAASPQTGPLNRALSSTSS
From the text: A whole cell receptor binding assay using [^3H]ramatroban as the competing radioactive ligand was employed to evaluate the compound binding activity to human CRTH2. The radioactive ligand [^3H]ramatroban was synthesized according to Sugimoto et. al. (Eur. J. Pharmacol. 524, 30-37, 2005) to a specific activity of 42 Ci/mmol.
A cell line stably expressing human CRTH2 was established by transfecting CHO-K1 cells with two mammalian expression vectors that harbored human CRTH2 and G-alpha16 cDNAs, respectively, using FuGene® 6 transfection reagent (from Roche). Stable clones expressing CRTH2 were selected by staining each clone with BM16 (BD Pharmingen™ from BD Biosciences, a division of Becton, Dickinson and Company), which is a rat monoclonal antibody to human CRTH2. The cells were maintained as monolayer cultures in Ham's F-12 medium containing 10% fetal bovine serum, 100 units/mL penicillin, 100 μg/mL streptomycin, 2 mM glutamine, 0.5 mg/mL G418 (geneticin) for CRTH2, and 0.2 mg/mL hygromycin-B (for G-alpha 16). For whole cell receptor binding assay, the monolayer cells were rinsed once with PBS (phosphate buffered saline), dissociated using ethylenediaminetetraacetate (Versene™ EDTA Lonza Inc.), and suspended in PBS containing 10 mM MgCl2 and 0.06% BSA (bovine serum albumin) at 1.5×10^6 cells/mL.
The binding reactions (0.2 mL) were performed in 96-well plates at room temperature in PBS containing 1.5×10^5 cells, 10 mM MgCl2, 0.06% BSA, 20 nM [^3H]ramatroban, and test compound at various concentrations. After 1 hour of binding reactions, the cells were harvested on GF™/B filter microplates (microtiter plates with embedded glass fiber from PerkinElmer, Inc.) and washed 5 times with PBS using a Filtermate™ Harvester (a cell harvester that harvests and washes cells from microplates from PerkinElmer, Inc.). The radioactivities bound to the cells were determined using a microplate scintillation counter (TopCount® NXT, from PerkinElmer, Inc.) after adding 50 μL of Microscint™ 20 scintillation fluid (from PerkinElmer, Inc.) to each well of the filter plates. The radioactivity from non-specific binding was determined by replacing compound with 10 μM of 15(R)-15-methyl PGD2 (from Cayman Chemical Company) in the reaction mixtures. The radioactivity bound to the cells in the absence of compound (total binding) was determined by replacing compound with 0.25% of DMSO (dimethyl sulfoxide) in the reaction mixture. Specific binding data were obtained by subtracting the radioactivity of non-specific binding from each binding data.
The IC50 value is defined as the concentration of the tested compound that is required for 50% inhibition of total specific binding. In order to calculate the IC50 value, the percent inhibition data were determined for 7 concentrations for each compound. The percent inhibition for a compound at each concentration was calculated according to the following formula, [1-(specific binding in the presence of compound)/(total specific binding)]x100. The IC50 value was then obtained by fitting the percent inhibition data to a sigmoidal dose-response (4 parameter logistic) model in the XLfit® software Excel add-in program [from ID Business Solutions Ltd., model 205, where F(x)=(A+(B−A)/(1+((C/x)^D)))].

Point of comparison: `O=C(O)Cn1ncc2c1CCCC2NS(=O)(=O)c1cnc(Oc2ccc(Cl)cc2)c(Br)c1` (centres unmarked) [Example 2-1a, {4-[5-Bromo-6-(4-chloro-phenoxy)-pyridine-3-sulfonylamino]-4,5,6,7-tetrahydro-indazol-1-yl}-acetic acid], IC50 7.2 nM. Against it:
- O=C(O)CCn1ncc2c1CCCC2NS(=O)(=O)c1ccc(-c2ccccc2)cc1 (single isomer, unassigned) [Example 10-30a, 3-[4-(biphenyl-4-sulfonylamino)-4,5,6,7-tetrahydro-indazol-1-yl]-propionic acid] — within 1.5-fold, 5.6 nM
- O=C(O)Cn1ncc2c1CCC[C@H]2NS(=O)(=O)c1ccc(Oc2ccccc2Cl)cc1 [Example 1-1a, {(R)-4-[4-(2-Chloro-phenoxy)-benzenesulfonylamino]-4,5,6,7-tetrahydro-indazol-1-yl}-acetic acid] — 3.8-fold higher, 27.7 nM
- O=C(O)Cn1ncc2c1CCC[C@H]2NS(=O)(=O)c1ccc(-c2ccccc2)cc1 [Example 1-2a, [(R)-4-(Biphenyl-4-sulfonylamino)-4,5,6,7-tetrahydro-indazol-1-yl]-acetic acid] — 13-fold higher, 93.6 nM
- O=C(O)Cn1ncc2c1CCCC2NS(=O)(=O)c1ccc(Oc2ccccc2)cc1 (centres unmarked) [Example 1-3a, [4-(4-Phenoxy-benzenesulfonylamino)-4,5,6,7-tetrahydro-indazol-1-yl]-acetic acid] — 28-fold higher, 199 nM
- Cc1nnc(-c2cccc(S(=O)(=O)NC3CCCc4c3cnn4CC(=O)O)c2)o1 (centres unmarked) [Example 1-4a, {4-[3-(5-Methyl-[1,3,4]oxadiazol-2-yl)-benzenesulfonylamino]-4,5,6,7-tetrahydro-indazol-1-yl}-acetic acid] — 34-fold higher, 244 nM
- O=C(O)Cn1ncc2c1CCCC2NS(=O)(=O)c1cccc(Oc2ccccc2)c1 (centres unmarked) [Example 1-5a, [4-(3-Phenoxy-benzenesulfonylamino)-4,5,6,7-tetrahydro-indazol-1-yl]-acetic acid] — 23-fold higher, 164 nM
- O=C(O)CCn1ncc2c1CCCC2NS(=O)(=O)c1ccc(-c2ccccc2)cc1 (centres unmarked) [Example 1-6a, 3-[4-(Biphenyl-4-sulfonylamino)-4,5,6,7-tetrahydro-indazol-1-yl]-propionic acid] — 66-fold higher, 475 nM
- O=C(O)Cn1ncc2c1CCCC2NS(=O)(=O)c1cnc(Oc2ccc(F)cc2)c(Br)c1 (centres unmarked) [Example 2-2a, {4-[5-Bromo-6-(4-fluoro-phenoxy)-pyridine-3-sulfonylamino]-4,5,6,7-tetrahydro-indazol-1-yl}-acetic acid] — 4.3-fold higher, 31.1 nM
- O=C(O)Cn1ncc2c1CCCC2NS(=O)(=O)c1cnc(Oc2cccc(Cl)c2)c(Br)c1 (centres unmarked) [Example 2-3a, {4-[5-Bromo-6-(3-chloro-phenoxy)-pyridine-3-sulfonylamino]-4,5,6,7-tetrahydro-indazol-1-yl}-acetic acid] — 2.7-fold higher, 19.4 nM
- N#Cc1ccc(Oc2ncc(S(=O)(=O)NC3CCCc4c3cnn4CC(=O)O)cc2Br)cc1 (centres unmarked) [Example 2-4a, {4-[5-Bromo-6-(4-cyano-phenoxy)-pyridine-3-sulfonylamino]-4,5,6,7-tetrahydro-indazol-1-yl}-acetic acid] — within 1.5-fold, 10.3 nM
- CS(=O)(=O)c1ccc(Oc2ncc(S(=O)(=O)NC3CCCc4c3cnn4CC(=O)O)cc2Br)cc1 (centres unmarked) [Example 2-5a, {4-[5-Bromo-6-(4-methanesulfonyl-phenoxy)-pyridine-3-sulfonylamino]-4,5,6,7-tetrahydro-indazol-1-yl}-acetic acid] — 14-fold higher, 101 nM
- Cc1ccc(Oc2ncc(S(=O)(=O)NC3CCCc4c3cnn4CC(=O)O)cc2Br)cc1 (centres unmarked) [Example 2-6a, [4-(5-Bromo-6-p-tolyloxy-pyridine-3-sulfonylamino)-4,5,6,7-tetrahydro-indazol-1-yl]-acetic acid] — 3.7-fold higher, 26.4 nM
- O=C(O)Cn1ncc2c1CCCC2NS(=O)(=O)c1cnc(Oc2ccc(C(F)(F)F)cc2)c(Br)c1 (centres unmarked) [Example 2-7a, {4-[5-Bromo-6-(4-trifluoromethyl-phenoxy)-pyridine-3-sulfonylamino]-4,5,6,7-tetrahydro-indazol-1-yl}-acetic acid] — 55-fold higher, 393 nM
- O=C(O)Cn1ncc2c1CCC[C@H]2NS(=O)(=O)c1cnc(Oc2ccc(Cl)cc2)c(Br)c1 [Example 2-8a, {(R)-4-[5-Bromo-6-(4-chloro-phenoxy)-pyridine-3-sulfonylamino]-4,5,6,7-tetrahydro-indazol-1-yl}-acetic acid] — within 1.5-fold, 7.8 nM
- O=C(O)Cn1ncc2c1CCC[C@H]2NS(=O)(=O)c1cnc(Oc2ccccc2Cl)c(Br)c1 [Example 2-9a, {(R)-4-[5-Bromo-6-(2-chloro-phenoxy)-pyridine-3-sulfonylamino]-4,5,6,7-tetrahydro-indazol-1-yl}-acetic acid] — within 1.5-fold, 8.4 nM
- O=C(O)Cn1ncc2c1CCCC2NS(=O)(=O)c1cnc(Oc2ccc(F)c(F)c2)c(Br)c1 (centres unmarked) [Example 2-10a, {4-[5-Bromo-6-(3,4-difluoro-phenoxy)-pyridine-3-sulfonylamino]-4,5,6,7-tetrahydro-indazol-1-yl}-acetic acid] — 27-fold higher, 196 nM
- O=C(O)CCn1ncc2c1CCC[C@H]2NS(=O)(=O)c1cnc(Oc2ccccc2Cl)c(Br)c1 [Example 2-11a, 3-{(R)-4-[5-Bromo-6-(2-chloro-phenoxy)-pyridine-3-sulfonylamino]-4,5,6,7-tetrahydro-indazol-1-yl}-propionic acid] — 2.5-fold higher, 18.2 nM
- O=C(O)CCn1ncc2c1CCC[C@H]2NS(=O)(=O)c1cnc(Oc2ccc(Cl)cc2)c(Br)c1 [Example 2-12a, 3-{(R)-4-[5-Bromo-6-(4-chloro-phenoxy)-pyridine-3-sulfonylamino]-4,5,6,7-tetrahydro-indazol-1-yl}-propionic acid] — 4.2-fold higher, 30.3 nM
- Cc1cc(S(=O)(=O)NC2CCCc3c2cnn3CC(=O)O)cnc1Oc1ccc(Cl)cc1 (centres unmarked) [Example 3-1a, {4-[6-(4-Chloro-phenoxy)-5-methyl-pyridine-3-sulfonylamino]-4,5,6,7-tetrahydro-indazol-1-yl}-acetic acid] — 4.8-fold higher, 34.9 nM
- O=C(O)Cn1ncc2c1CCCC2NS(=O)(=O)c1ccc(Oc2ccc(F)cc2)nc1 (centres unmarked) [Example 4-1a, {4-[6-(4-Fluoro-phenoxy)-pyridine-3-sulfonylamino]-4,5,6,7-tetrahydro-indazol-1-yl}-acetic acid] — 22-fold higher, 158 nM
- O=C(O)Cn1ncc2c1CCC[C@H]2NS(=O)(=O)c1ccc(Oc2ccccc2Cl)c(Cl)c1 [Example 5-1a, {(R)-4-[3-Chloro-4-[2-chloro-phenoxy)-benzenesulfonylamino]-4,5,6,7-tetrahydro-indazol-1-yl}-acetic acid] — 2-fold higher, 14.6 nM
- O=C(O)Cn1ncc2c1CCCC2NS(=O)(=O)c1ccc(Oc2cccc(Cl)c2)cc1 (centres unmarked) [Example 5-2a, {4-[4-(3-Chloro-phenoxy)-benzenesulfonylamino]-4,5,6,7-tetrahydro-indazol-1-yl}-acetic acid] — 28-fold higher, 202 nM
- O=C(O)Cn1ncc2c1CCCC2NS(=O)(=O)c1ccc(Oc2ccc(Cl)cc2)cc1 (centres unmarked) [Example 5-3a, {4-[4-(4-Chloro-phenoxy)-benzenesulfonylamino]-4,5,6,7-tetrahydro-indazol-1-yl}-acetic acid] — 8.4-fold higher, 60.6 nM
- O=C(O)Cn1ncc2c1CCCC2NS(=O)(=O)c1cc(Oc2ccccc2)cc(C(F)(F)F)c1 (centres unmarked) [Example 5-4a, [4-(3-Phenoxy-5-trifluoromethyl-benzenesulfonylamino)-4,5,6,7-tetrahydro-indazol-1-yl]-acetic acid] — 5-fold higher, 35.9 nM
- O=C(O)Cn1ncc2c1CCC[C@H]2NS(=O)(=O)c1ccc(Oc2ccccc2Cl)cc1Cl [Example 5-5a, {(R)-4-[2-Chloro-4-(2-chloro-phenoxy)-benzenesulfonylamino]-4,5,6,7-tetrahydro-indazol-1-yl}-acetic acid] — within 1.5-fold, 6.9 nM
